Experimental data published in the NIST ThermoML archive (doi:10.1016/j.fluid.2013.10.033).
± gives the expanded uncertainty stated by the source.

Legend:
[1] = refractive index (Na D-line) (dimensionless); conditions: 298.15 K; 101.33 kPa; Liquid; Standard Abbe refractometry
[2] = 298.15 K; 101.33 kPa; Liquid; Vibrating tube method
[3] = xn = mol fraction of the nth substance listed; conditions: 298.15 K, 101 kPa, Liquid, Vibrating tube method

refractive index [1] | mass density [2] | Structure (SMILES) | also measured
1.4236 ± 0.00068 | 773.8 ± 0.13 kg/m3 | C1CCCCC1 [cyclohexane] | 
1.44378 ± 0.0007 | 805.69 ± 0.24 kg/m3 | C1=CCCCC1 [cyclohexene] | 
1.45598 ± 0.00068 | 831.47 ± 0.12 kg/m3 | C1CCCCCCC1 [cyclooctane] | 
1.42062 ± 0.0007 | 765.02 ± 0.24 kg/m3 | CC1CCCCC1 [methylcyclohexane] | 

Continued, molecule first:

Structure (SMILES) | refractive index [1] | mass density [2] | also measured
CCOS(=O)(=O)[O-].CC[n+]1ccccc1 [1-ethylpyridinium ethyl sulfate] | 1.50525 ± 0.0007 | 1252 ± 0.4 kg/m3 | 
CCOS(=O)(=O)[O-].CC[n+]1ccccc1 [1-ethylpyridinium ethyl sulfate] + C1=CCCCC1 |  |  | mass density ([3]; x2 = 0.041): 1243.4 ± 1.8 kg/m3
CCOS(=O)(=O)[O-].CC[n+]1ccccc1 [1-ethylpyridinium ethyl sulfate] + C1CCCCC1 |  |  | mass density ([3]; x2 = 0.017): 1247.74 ± 1.8 kg/m3
CCOS(=O)(=O)[O-].CC[n+]1ccccc1 [1-ethylpyridinium ethyl sulfate] + C1CCCCCCC1 |  |  | mass density ([3]; x2 = 0.009): 1249.15 ± 1.2 kg/m3
CCOS(=O)(=O)[O-].CC[n+]1ccccc1 [1-ethylpyridinium ethyl sulfate] + CC1CCCCC1 |  |  | mass density ([3]; x2 = 0.013): 1248.79 ± 1.7 kg/m3
CCOS(=O)(=O)[O-].CC[n+]1ccccc1 [1-ethylpyridinium ethyl sulfate] + c1ccccc1 |  |  | mass density ([3]; x2 = 0.406): 1171.69 ± 1.6 kg/m3
c1ccccc1 [benzene] | 1.49774 ± 0.00068 | 873.57 ± 0.11 kg/m3 | 
